# Measurements as given in patent publication US4416884A, “Piperazinylbenzoheterocyclic compounds” (Otsuka Pharmaceutical Co., Ltd., priority 1978, dated 1983).
# Structures can show the parent of a compound that is named as a salt. Where two headings read alike, the source gives them in different places.
# How the values were obtained:
# Experiment in all cases: antimicrobial activity, serial dilution method on agar plate
# Assay type in all cases: cell-based
# [1] = test system: Escherichia Coli NIHJ; settings: read-out: Minimum Inhibitory Concentration
# Procedure: (§1) The antimicrobial activity of the following test compounds on various test organisms listed below was determined by the serial dilution method on agar plate (Heart Infusion agar produced by Difco Co.) (see CHEMOTHERAPY 22, pp. 1126-1128 (1974)), and the minimum inhibitory concentrations (mcg/ml) obtained are shown in Table 1 below.
# (§2) A sample of each test organism was prepared so that the population of the organism was 1×10^8 cells/ml (O.D. 660 mμ=0.07 to 0.16) and 1×10^6 cells/ml (which was obtained by diluting the above 1×10^8 cells/ml preparation).
# [2] = test system: Klebsiella pneumoniae
# Procedure: as §1, §2
# [3] = test system: Proteus rettgeri NIH 96; settings: Providencia rettgeri
# Procedure: as §1, §2
# [4] = test system: Pseudomonas aeruginosa ATCC 10145
# Procedure: as §1, §2
# [5] = test system: Pseudomonas aeruginosa E-2
# Procedure: as §1, §2
# [6] = test system: Pseudomonas aeruginosa NCTC 10490
# Procedure: as §1, §2
# [7] = test system: Salmonella typhi 0-901 (NCTC 8393); settings: Salmonella enterica
# Procedure: as §1, §2
# [8] = test system: Serattia marcescens IFO 12648
# Procedure: as §1, §2
# [9] = test system: Shigella Sonnei EW 33; settings: read-out: Minimum Inhibitory Concentration
# Procedure: as §1, §2
# [10] = test system: Staphylococcus aureus FDA 209 P
# Procedure: as §1, §2
# [11] = test system: Streptococcus pyogenes IID S-23
# Procedure: as §1, §2
# [12] = test system: Escherichia Coli NIHJ JC-2 (IFO 12734); settings: for MIC: Escherichia coli, read-out: Minimum Inhibitory Concentration
# Procedure: as §1, §2
# [13] = inoculum 1 × 10^8 cells/ml, read-out: Minimum Inhibitory Concentration
# [14] = NIH96, inoculum 1 × 10^8 cells/ml, read-out: Minimum Inhibitory Concentration
# [15] = ATCC10145, inoculum 1 × 10^8 cells/ml, read-out: Minimum Inhibitory Concentration
# [16] = E2, inoculum 1 × 10^8 cells/ml, read-out: Minimum Inhibitory Concentration
# [17] = NCTC10490, inoculum 1 × 10^8 cells/ml, read-out: Minimum Inhibitory Concentration
# [18] = read-out: Minimum Inhibitory Concentration, inoculum 1 × 10^8 cells/ml
# [19] = FDA209, inoculum 1 × 10^8 cells/ml, read-out: Minimum Inhibitory Concentration
# [20] = ATCC10145, read-out: Minimum Inhibitory Concentration, inoculum 1 × 10^8 cells/ml
# [21] = inoculum 1 × 10^6 cells/ml, read-out: Minimum Inhibitory Concentration
# [22] = NIH96, inoculum 1 × 10^6 cells/ml, read-out: Minimum Inhibitory Concentration
# [23] = ATCC10145, inoculum 1 × 10^6 cells/ml, read-out: Minimum Inhibitory Concentration
# [24] = E2, inoculum 1 × 10^6 cells/ml, read-out: Minimum Inhibitory Concentration
# [25] = NCTC10490, inoculum 1 × 10^6 cells/ml, read-out: Minimum Inhibitory Concentration
# [26] = read-out: Minimum Inhibitory Concentration, inoculum 1 × 10^6 cells/ml
# [27] = FDA209, inoculum 1 × 10^6 cells/ml, read-out: Minimum Inhibitory Concentration
# [28] = IIDS23, inoculum 1 × 10^6 cells/ml, read-out: Minimum Inhibitory Concentration
# [29] = IIDS23, inoculum 1 × 10^8 cells/ml, read-out: Minimum Inhibitory Concentration
Compound,MIC ([1]; inoculum 1 × 10^8 cells/ml),"MIC [2, 13]","MIC [3, 14]","MIC [4, 15]","MIC [5, 16]","MIC [6, 17]","MIC [7, 18]","MIC [8, 13]",MIC ([9]; inoculum 1 × 10^8 cells/ml),"MIC [10, 19]","MIC [2, 21]","MIC [3, 22]","MIC [4, 23]","MIC [5, 24]","MIC [6, 25]","MIC [7, 26]","MIC [8, 21]",MIC ([9]; inoculum 1 × 10^6 cells/ml),"MIC [10, 27]","MIC [11, 28]",also measured
"CC1(C)SC2C(NC(=O)C(NC(=O)c3cn4c5c(c(N6CCNCC6)cc(Cl)c5c3=O)CCC4)c3ccccc3)C(=O)N2C1C(=O)O (centres unmarked) [Compound K, 6-{2-[10-Chloro-8-(1-piperazinyl)-6,7-dihydro-1-oxo-1H,5H--benzo[ij]quinolizine-2-carboxamido]-2-phenylacetamido}-3,3-dimethyl-7-oxo-4-thia-1-azabicyclo[3,2,0]heptane-2-carboxylic acid, reference compound]",6.3 µg/mL,6.3 µg/mL,12.5 µg/mL,12.5 µg/mL,25 µg/mL,3.1 µg/mL,3.1 µg/mL,12.5 µg/mL,3.1 µg/mL,0.8 µg/mL,,,,,,,,,,,
CC(=O)N1CCN(c2ccc3c(=O)c(C(=O)NC(C(=O)NC4C(=O)N5C4SC(C)(C)C5C(=O)O)c4ccccc4)cn4c3c2CCC4)CC1 (centres unmarked) [H],6.3 µg/mL,,25 µg/mL,,25 µg/mL,3.1 µg/mL,6.3 µg/mL,50 µg/mL,12.5 µg/mL,1.6 µg/mL,,,,,,,,,,,"MIC [2, 18]: 12.5 µg/mL; MIC [4, 20]: 12.5 µg/mL"
CC1Cc2c(Cl)ccc3c(=O)c(C(=O)O)cn1c23 (centres unmarked) [G],0.8 µg/mL,3.1 µg/mL,0.4 µg/mL,50 µg/mL,100 µg/mL,25 µg/mL,0.8 µg/mL,3.1 µg/mL,1.6 µg/mL,3.1 µg/mL,1.6 µg/mL,0.2 µg/mL,25 µg/mL,50 µg/mL,12.5 µg/mL,0.8 µg/mL,1.6 µg/mL,1.6 µg/mL,3.1 µg/mL,> 100 µg/mL,"MIC ([1]; inoculum 1 × 10^6 cells/ml): 0.4 µg/mL; MIC [11, 29]: > 100 µg/mL"
"CC1(C)SC2C(NC(=O)C(NC(=O)c3cn4c5c(c(N6CCN(S(C)(=O)=O)CC6)ccc5c3=O)CCC4)c3ccccc3)C(=O)N2C1C(=O)O (centres unmarked) [Compound J, 6-{2-[8-(4-Methanesulfonyl-1-piperazinyl)-6,7-dihydro-1-oxo-1H,5H--benzo[ij]quinolizine-2-carboxamido]-2-phenylacetamido}-3,3-dimethyl-7-oxo-4-thia-1-azabicyclo[3,2,0]-heptane-2-carboxylic acid, reference compound]",3.1 µg/mL,6.3 µg/mL,12.5 µg/mL,12.5 µg/mL,25 µg/mL,3.1 µg/mL,3.1 µg/mL,50 µg/mL,6.3 µg/mL,0.8 µg/mL,,,,,,,,,,,
CC1(C)SC2C(NC(=O)C(NC(=O)c3cn4c5c(c(N6CCNCC6)ccc5c3=O)CCC4)c3ccccc3)C(=O)N2C1C(=O)O (centres unmarked) [I],1.6 µg/mL,0.8 µg/mL,0.4 µg/mL,25 µg/mL,25 µg/mL,6.3 µg/mL,0.2 µg/mL,12.5 µg/mL,3.1 µg/mL,0.1 µg/mL,,,,,,,,,,,
"CC1CCc2c(N3CCNCC3)c(Cl)cc3c(=O)c(C(=O)O)cn1c23 (centres unmarked) [Compound T, 8-(1-Piperazinyl)-9-chloro-5-methyl-6,7-dihydro-1-oxo-1H,5H--benzo[ij]quinolizine-2-carboxylic acid hydrochloride hydrate]",,,,,,,,,0.2 µg/mL,,,,,,,,,0.2 µg/mL,,,"MIC [12]: 0.4 µg/mL; Minimum Inhibitory Concentration ([12]; inoculum 1 × 10^6 cells/ml): 0.4 µg/mL; MIC [2, 26]: 0.4 µg/mL; MIC [2, 18]: 0.4 µg/mL; MIC ([3]; NIH96, read-out: Minimum Inhibitory Concentration, inoculum 1 × 10^6 cells/ml): 0.2 µg/mL; MIC ([3]; NIH96, read-out: Minimum Inhibitory Concentration, inoculum 1 × 10^8 cells/ml): 0.2 µg/mL; MIC ([4]; ATCC10145, read-out: Minimum Inhibitory Concentration, inoculum 1 × 10^6 cells/ml): 1.6 µg/mL; MIC [4, 20]: 3.1 µg/mL; MIC ([5]; E2, read-out: Minimum Inhibitory Concentration, inoculum 1 × 10^6 cells/ml): 3.1 µg/mL; MIC ([5]; E2, read-out: Minimum Inhibitory Concentration, inoculum 1 × 10^8 cells/ml): 3.1 µg/mL; MIC ([6]; NCTC10490, read-out: Minimum Inhibitory Concentration, inoculum 1 × 10^6 cells/ml): 1.6 µg/mL; MIC ([6]; NCTC10490, read-out: Minimum Inhibitory Concentration, inoculum 1 × 10^8 cells/ml): 1.6 µg/mL; MIC [7, 21]: 0.1 µg/mL; MIC [7, 13]: 0.2 µg/mL; MIC [8, 26]: 1.6 µg/mL; MIC [8, 18]: 1.6 µg/mL; MIC ([10]; FDA209, read-out: Minimum Inhibitory Concentration, inoculum 1 × 10^6 cells/ml): 1.6 µg/mL; MIC ([10]; FDA209, read-out: Minimum Inhibitory Concentration, inoculum 1 × 10^8 cells/ml): 1.6 µg/mL; MIC ([11]; IIDS23, read-out: Minimum Inhibitory Concentration, inoculum 1 × 10^6 cells/ml): 3.1 µg/mL; MIC ([11]; IIDS23, read-out: Minimum Inhibitory Concentration, inoculum 1 × 10^8 cells/ml): 6.3 µg/mL"
"CC1CCc2c(N3CCN(C)CC3)c(F)cc3c(=O)c(C(=O)O)cn1c23 (centres unmarked) [Compound W, 8-(4-Methyl-1-piperazinyl)-9-fluoro-5-methyl-6,7-dihydro-1-oxo-1H,5H--benzo[ij]-quinolizine-2-carboxylic acid]",,0.4 µg/mL,0.4 µg/mL,3.1 µg/mL,6.3 µg/mL,1.6 µg/mL,0.1 µg/mL,0.4 µg/mL,0.2 µg/mL,0.4 µg/mL,0.2 µg/mL,0.4 µg/mL,1.6 µg/mL,3.1 µg/mL,1.6 µg/mL,≤ 0.05 µg/mL,0.4 µg/mL,0.2 µg/mL,0.4 µg/mL,1.6 µg/mL,"MIC ([12]; inoculum 1 × 10^6 cells/ml): 0.4 µg/mL; MIC ([12]; inoculum 1 × 10^8 cells/ml): 0.4 µg/mL; MIC [11, 29]: 1.6 µg/mL"
"CC1CCc2c(N3CCN(C=O)CC3)c(Cl)cc3c(=O)c(C(=O)O)cn1c23 (centres unmarked) [Compound V, 8-(4-Formyl-1-piperazinyl)-9-chloro-5-methyl-6,7-dihydro-1-oxo-1H,5H--benzo[ij]-quinolizine-2-carboxylic acid]",,0.8 µg/mL,0.8 µg/mL,12.5 µg/mL,12.5 µg/mL,3.1 µg/mL,0.2 µg/mL,3.1 µg/mL,0.8 µg/mL,0.2 µg/mL,0.8 µg/mL,0.8 µg/mL,12.5 µg/mL,6.3 µg/mL,1.6 µg/mL,0.2 µg/mL,3.1 µg/mL,0.4 µg/mL,0.2 µg/mL,1.6 µg/mL,"MIC ([12]; inoculum 1 × 10^6 cells/ml): 0.8 µg/mL; MIC ([12]; inoculum 1 × 10^8 cells/ml): 0.8 µg/mL; MIC [11, 29]: 3.1 µg/mL"
